From US20170368134A1, “PROTEASOME INHIBITORS FOR TREATING A DISORDER RELATED TO AN ACCUMULATION OF NON-DEGRADED ABNORMAL PROTEIN OR A CANCER” (UNIVERSITÉ D'AIX-MARSEILLE, priority 2015, published 2017)
Peptide text beside a SMILES is read from it. * marks the point of attachment. Cbz = O=C(OCc1ccccc1)*

Tests used:
LC3B-II = experiment: Western blot of LC3B-II (autophagy level) in HGPS fibroblasts; type: cell-based, human; settings: HGPS fibroblasts following MG132 treatment
Procedure: (§1) Total fibroblast proteins were extracted in 200 μL of NP40 Cell Lysis buffer (Invitrogen, Carlsbad, Calif.) containing Protease and Phosphatase Inhibitor Cocktail (Thermo Scientific). Alternatively, cells were lysed with urea (8 M urea, 5 mM dithiothreitol, 150 mM NaCl, 50 mM Tris-Cl pH 7.5, protease and phosphatase Inhibitor Cocktail (Thermo Scientific)). Cells were sonicated twice (30 sec each), incubated at 4° C. for 30 minutes and then centrifuged at 10,000 g for 10 minutes. Protein concentration was evaluated with the bicinchoninic acid technique (Pierce BCA Protein Assay Kit), absorbance at 562 nm is measured using nanodrop 1000 (Thermo Fisher Scientific Inc.) Equal amounts of proteins (40 μg) were loaded onto 10% Tis-Glycine gel (Criterion™ XT precast gel) using XT Tricine running Buffer (Biorad, USA). After electrophoresis, gels were electro transferred onto nitrocellulose membranes or Immobilon-FL polyvinylidene fluoride membranes (Millipore), blocked in Odyssey Blocking Buffer diluted 1:1 in PBS for 1 hour at room temperature, and incubated overnight at 4° C. or 2 hours at room temperature with various primary antibodies. […]

lamin A [1] = experiment: Western blot of lamin A protein in HGPS fibroblasts; type: cell-based, human; settings: 48 h treatment with MG132 (10 μM)
Procedure: as §1

progerin = experiment: Immunofluorescence of subcellular progerin localization; type: cell-based, human; settings: HGPS cell lines, 48 h MG132 exposure
Procedure: Cells collected by centrifugation were spread onto polylysine-coated slides by centrifugation (300 rpm for 5 minutes) with a cytospin (Shandon). Cells were then fixed at room temperature for 10 minutes in 2% (w/v) paraformaldehyde in PBS pH 7.2. Slides were stored at −80° C. prior to use. Cells were permeabilized using 100 μL permeabilization buffer (0.5% Triton X-100, 50 mM NaCl, 300 mM sucrose, 20 mM HEPES pH 7.5, 3 mM MgCl2) for 3 minutes at RT. Non-specific antibody binding was blocked with 3% Bovine Serum Albumin in PBS (w/v) (PBS-BSA) for 30 minutes. The permeabilized cells were incubated with the primary antibodies for 3 h at 37° C. After washing, the cells were then incubated with secondary antibodies (A11001, A11058, Life Technologies; 1/400) for 20 minutes at 37° C. Nuclei were stained with DAPI (50 ng/ml) diluted in Vectashield (Abcys) for 10 minutes at RT. Samples were fixed in 4% paraformaldehyde for 5 min. […]
It has been reported that the MG132 can lead to PML-NBs component proteins being translocated into the nucleolus. […] Therefore, nucleolus might function as an alternative sequestration site that immobilizes and temporarily stores accumulated progerin when proteasome-dependent degradation is blocked, as the inventors detected PML and LC3B cytosolic colocalization upon 24 h MG132 treatment (data not shown). […]

lamin A [2] = experiment: Intramuscular MG132 in Lmna G609G/G609G mice, lamin A in gastrocnemius muscle; type: in vivo, mouse
Procedure: (§2) (A) Lamin A, progerin, lamin C and SRSF-1 specific bands, corresponding to DMSO-treated left muscle (−) and 1 μg/Kg MG132-treated right muscle (+), were quantified by ImageJ software and their expression levels were normalized to GAPDH values.
(§3) Knock-in mouse model (Lmna^G609G/G609G) carrying the c.1827C>T (p.Gly609Gly) mutation in the endogenous Lmna gene, corresponding to the human HGPS mutation c.1824C>T (p.Gly609Gly) have been described previously (31). MG132 (1 or 10 μg/Kg body weight) was injected under isoflurane anesthesia into the right gastrocnemius muscle of […] homozygous knock-in mice (Lmna^G609G/G609G) 3 times per week for 2 weeks. Contralateral muscle served as control (DMSO). MG132 was dissolved in dimethyl sulfoxide (DMSO) and then diluted in 100 μl sterile phosphate-buffered saline (PBS) for intramuscular injection. […] Animal experiments have been carried out in compliance with the European guidelines for the care and use of laboratory animals (EU directive 2010/63/EU) and in accordance with the recommendations provided by the guide for the care and use of the laboratory animals of the French national Institute for Health and Medical Research (INSERM) and the ethical committee of Aix-Marseille University.

lamin C = experiment: Intramuscular MG132 in Lmna G609G/G609G mice, lamin C in gastrocnemius muscle; type: in vivo, mouse
Procedure: as §2, §3

[3] = tested on: Act88F-PABPN1-17ala-expressing flies; experiment: Wing posture defects in Drosophila OPMD model; type: in vivo; settings: oral in food, from larval stages, Day 3 to Day 11 of adulthood, vs DMSO alone
Procedure: Drug supplemented food was prepared as follows. Instant Drosophila medium (Carolina Biological Supply Company) was reconstituted in each vial with a solution of 1% yeast in water, supplemented with either increasing concentrations of drug solubilized in DMSO (dimethyl sulfoxide), or DMSO alone. MG132 was purchased from Santa Cruz Biotechnology (SC-201270). Each vial contained 5 ml or 2.5 ml of reconstituted medium, to raise larvae or adults, respectively. Individuals were fed with the drug from larval stages. 70 to 80 first instar larvae were transferred per vial and developed in the same vial up to adulthood; adults were transferred in a new vial with the same concentration of drug. […] Abnormal wing posture was quantified by collecting adult males at birth, pooling five males per vial and scoring abnormal wing position each day by direct observation of the flies through the vials, without anesthesia.
The inventors used the Drosophila model in which PABPN1-17ala is expressed constitutively in adult indirect flight muscles from the Act88F-PABPN1-17ala transgene (90), to assay the effect of MG132 in vivo. […] Wing posture defects were recorded from Day 3 to Day 11 of adulthood. The effect of MG132 was quantified by recording the number of Act88F-PABPN1-17ala-expressing flies with abnormal wing posture.

[4] = 1 μg/Kg intramuscular, change not significant
[5] = 10 μg/kg body weight intramuscular

## CC(C)C[C@@H](C=O)NC(=O)[C@H](CC(C)C)NC(=O)[C@H](CC(C)C)NC(=O)OCc1ccccc1 [MG132, Z-Leu-Leu-Leu-al] (Cbz-Leu-Leu-Leu-aldehyde)
LC3B-II
  LC3B-II levels: increased
Lamin A [1]
  lamin A protein levels: increased
progerin
  subcellular progerin localization: progerin accumulates into autophagic vacuoles
Lamin A [2]; [4]
  lamin A level in treated muscle: small increase in lamin A
Lamin A [2]; [5]
  lamin A level in treated muscle: remain constant or increase slightly
Lamin C; [4]
  lamin C level in treated muscle: decrease of lamin C
Lamin C; [5]
  lamin C level in treated muscle: decrease in lamin C
[3]
  number of flies with abnormal wing posture: significant decrease in the number of flies with abnormal wing posture
